# Biological target: HPK1 (Homo sapiens (Human), UniProt Q92918)
# Assay: HPK1 biochemical enzyme assay (microfluidic mobility shift assay)
# Settings: 1.5 nM HPK1, ATP 1 mM final, 30 min preincubation, 60 min at RT, Caliper EZ Reader; read-out: HPK1 1000UMATP caliper IC50
# Method in brief: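 Ten-point compound titrations (top 3 μM final) preincubated 30 min with HPK1 and substrate, then reaction started with 1 mM ATP and 1 μM substrate, 5 mM MgCl2. After 60 min at RT, reaction terminated and product measured by microfluidic mobility shift.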
# HPK1, sequence (Q92918 whole entry): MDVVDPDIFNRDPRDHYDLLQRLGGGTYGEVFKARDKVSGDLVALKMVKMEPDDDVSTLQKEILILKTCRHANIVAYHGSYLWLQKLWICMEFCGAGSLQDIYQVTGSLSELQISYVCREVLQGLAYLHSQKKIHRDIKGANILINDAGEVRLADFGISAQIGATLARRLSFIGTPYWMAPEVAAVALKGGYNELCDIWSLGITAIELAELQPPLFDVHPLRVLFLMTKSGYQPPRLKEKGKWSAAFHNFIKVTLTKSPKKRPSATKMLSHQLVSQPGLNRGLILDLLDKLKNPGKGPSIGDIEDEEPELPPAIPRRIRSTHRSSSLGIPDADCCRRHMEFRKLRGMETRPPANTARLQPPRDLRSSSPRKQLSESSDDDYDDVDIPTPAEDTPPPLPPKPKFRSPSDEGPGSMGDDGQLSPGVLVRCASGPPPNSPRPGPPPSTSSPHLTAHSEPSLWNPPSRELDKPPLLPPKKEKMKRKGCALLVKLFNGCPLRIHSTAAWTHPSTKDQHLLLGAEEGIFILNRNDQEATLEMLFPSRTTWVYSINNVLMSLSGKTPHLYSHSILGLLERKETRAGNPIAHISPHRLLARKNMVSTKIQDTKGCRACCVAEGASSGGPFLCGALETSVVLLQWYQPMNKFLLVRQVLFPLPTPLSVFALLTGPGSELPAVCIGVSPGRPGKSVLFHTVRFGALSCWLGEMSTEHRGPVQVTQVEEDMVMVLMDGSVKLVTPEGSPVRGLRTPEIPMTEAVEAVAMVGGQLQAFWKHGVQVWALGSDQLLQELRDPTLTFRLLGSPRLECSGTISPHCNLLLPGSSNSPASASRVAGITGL
row,IC50,Compound
1,> 1000 nM,"Cc1nc2ccccn2c1-c1ncc(Nc2ccc(N3CCC(O)CC3)cn2)c2c1CNC2=O [I-248, 7-[[5-(4-hydroxy-1-piperidyl)-2-pyridyl]-amino]-4-(2-methylimidazo [1,2-a]pyridin-3-yl)-2,3-dihydropyrrolo [3,4-c]pyridin-1-one]"
2,100 to 1000 nM,"Cn1ccc2c(-c3ncc(Nc4cccc(N5C[C@H](CN6CCC6)CCC5=O)n4)c4c3CNC4=O)ccnc21 [I-689, (S)-7-((6-(5-(azetidin-1-ylmethyl)-2-oxopiperidin-1-yl)pyridin-2-yl)amino)-4-(1-methyl-1H-pyrrolo[2,3-b]pyridin-4-yl)-2,3-dihydro-1H-pyrrolo[3,4-c]pyridin-1-one]"
3,< 100 nM,"Cc1ccn2c(-c3ccc(Nc4ccc(N5CCC(O)(CN6CCOCC6)CC5)cn4)c4c3CNC4=O)cnc2c1F [I-439, 4-(8-fluoro-7-methylimidazo [1,2-a]pyridin-3-yl)-7-((5-(4-hydroxy-4-(morpholinomethyl)piperidin-1-yl)pyridin-2-yl)amino)isoin-dolin-1-one]"
4,< 100 nM,"O=C1NCc2c(-c3cnc4cc(F)ccn34)ccc(Nc3ccc([C@H]4CCOC4)c(CNCC(F)(F)F)n3)c21 [I-750, (R)-4-(7-fluoroimidazo [1,2-a]pyridin-3-yl)-7-((5-(tetrahydrofuran-3-yl)-6-(((2,2,2-trifluoroethyl)amino)methyl)pyridin-2-yl)amino)isoin-dolin-1-one]"
5,< 100 nM,"Cc1ccn2c(-c3ccc(Nc4ccc(N5CCO[C@@H](C(C)(C)O)C5)cn4)c4c3CNC4=O)cnc2c1F [I-487, 4-(8-fluoro-7-methyl-imidazo[1,2-a]pyridin-3-yl)-7-[[5-[(2R)-2-(1-hydroxy-1-methyl-ethyl)morpholin-4-yl]-2-pyridyl]amino]isoindolin-1-one]"
6,< 100 nM,"O=C1NCc2c(-c3cnc4cc(F)ccn34)ccc(Nc3ccc(N4CCO[C@H](CO)C4)cn3)c21 [I-454, 4-(7-fluoroimidazo [1,2-a]pyridin-3-yl)-7-[[5-[(2S)-2-(hydroxymeth-yl)morpliolin-4-yl]-2-pyridyl]amino] isoindolin-1-one]"
7,< 100 nM,"O=C1NCc2c(-c3cnc4cc(F)ccn34)ccc(Nc3ccc([C@@H]4CCOC4)cn3)c21 [I-222, (S)-4-(7-fluoroimidazo [1,2-a]pyridin-3-yl)-7-((5-(tetrahydro-furan-3-yl)pyridin-2-yl)amino)isoin-dolin-1-one]"
8,< 100 nM,"COC1CN(Cc2nc(Nc3ccc(-c4cnc5cc(F)ccn45)c4c3C(=O)NC4)ccc2[C@@H]2CCOC2)C1 [I-549, (S)-4-(7-fluoroimidazo [1,2-a]pyridin-3-yl)-7-((6-((3-methoxyaze-tidin-1-yl)methyl)-5-(tetrahydrofuran-3-yl)pyridin-2-yl)amino)isoin-dolin-1-one]"
9,< 100 nM,"Cc1ccn2c(-c3ccc(Nc4ccc(N5CCC[C@H](C(C)(C)O)C5)cn4)c4c3CNC4=O)cnc2n1 [I-225, 7-[[5-[(3S)-3-(1-hydroxy-1-methyl-ethyl)-1-piperidyl]-2-pyridyl]-amino]-4-(7-methylimidazo [1,2-a]pyrimidin-3-yl)isoindolin-1-one]"
10,> 1000 nM,"Cn1ccc2c(-c3ccc(-n4ccc(N5CCC[C@](C)(O)C5)n4)c4c3CNC4=O)ccnc21 (single isomer, unassigned) [I-306]"
11,< 100 nM,"COC[C@H]1CN(c2ccc(Nc3cnc(-c4ccnc5c4ccn5C)c4c3C(=O)NC4)nc2CN(C)C)CCO1 [I-798, (R)-7-((6-((dimethylamino)-methyl)-5-(2-(methoxymeth-yl)morpholino)pyridin-2-yl)amino)-4-(1-methyl-1H-pyrrolo[2,3-b]pyridin-4-yl)-2,3-dihydro-1H-pyrrolo[3,4-c]pyridin-1-one]"
12,< 100 nM,"COCC1CN(c2ccc(Nc3ccc(-c4ncnc5c4ccn5C)c4c3C(=O)NC4)nc2)CCO1 (stereo in doubt) [I-650, (S)-7-((5-(2-(methoxymeth-yl)morpho-lino)pyridin-2-yl)amino)-4-(7-methyl-7H-pyrrolo[2,3-d|pyrimidin-4-yl)isoindolin-1-one]"
13,< 100 nM,"Cn1ccc2c(-c3ccc(Nc4ccc(N5CC6(CC(O)C6)C5)cn4)c4c3CNC4=O)ccnc21 [I-297, 7-((5-(6-hydroxy-2-azaspiro[3,3]heptan-2-yl)pyridin-2-yl)amino)-4-(1-methyl-1H-pyrrolo[2,3-b]pyridin-4-yl)isoindolin-1-one]"
14,< 100 nM,"COCC1(c2ccc(Nc3ccc(-c4cnc5cc(F)ccn45)c4c3C(=O)NC4)nc2CN(C)C)CCOC1 (stereo not drawn) [I-837, 7-((6-((dimethylamino)methyl)-5-(3-(methoxymethyl)tetrahydrofuran-3-yl)pyridin-2-yl)amino)-4-(7-fluoroimidazo[1,2-a]pyridin-3-yl)isoindolin-1-one]"
15,100 to 1000 nM,"O=C1NCc2c(-c3cnn4c3CCCC4)ccc(Nc3ccc(N4CCC[C@@]5(CCNC5=O)C4)cn3)c21 [I-445, (R)-7-(6-((3-oxo-7-(4,5,6,7-tetrahydropyra-zolo[1,5-a]pyridin-3-yl)isoindolin-4-yl)amino)pyri-din-3-yl)-2,7-diazaspiro[4.5] decan-1-one]"
16,< 100 nM,"CN(C)[C@H]1COCCN(c2ccc(Nc3ccc(-c4cnc5cc(F)ccn45)c4c3C(=O)NC4)nc2)C1 [I-519, (R)-7-((5-(6-(dimethylami-no)-1,4-oxazepan-4-yl)pyridin-2-yl)amino)-4-(7-fluoroimidazo [1,2-a]pyridin-3-yl)isoindolin-1-one]"
17,100 to 1000 nM,"O=C1NCc2c(-c3cncc4nccn34)ncc(Nc3ccc(N4CCC(O)CC4)cn3)c21 [I-376, 7-((5-(4-hydroxypiperidin-1-yl)pyridin-2-yl)amino)-4-(imidazo[1,2-a]pyrazin-5-yl)-2,3-dihydro-1H-pyrrolo[3,4-c]pyridin-1-one]"
18,< 100 nM,"O=C1NCc2c(-c3cnc4ccccn34)ccc(Nc3ccc(N4CCCNCC4)cn3)c21 [I-104, 7-[[5-(l,4-diazepan-1-yl)-2-pyridyl]amino]-4-imidazo[1,2-a]pyridin-3-yl-isoindolin-1-one]"
19,< 100 nM,"Cn1ccc2c(-c3ccc(Nc4ccc(N5CCC[C@H](C(C)(C)O)C5)cn4)c4c3CNC4=O)ccnc21 (single isomer, unassigned) [I-280]"
20,< 100 nM,"CN1CCc2c(-c3ccc(Nc4ccc(N5CCNCC5)cn4)c4c3CNC4=O)ccnc21 [I-93, 4-(1-methyl-2,3-dihydropyrrolo [2,3-b]pyridin-4-yl)-7-[(5-piperazin-1-yl-2-pyridyl)amino] isoindolin-1-one]"
21,< 100 nM,"Cn1ccc2c(-c3ccc(Nc4ccc(C5CCOC5)cn4)c4c3CNC4=O)ccnc21 (stereo not drawn) [I-108, 4-(1-methylpyrrolo [2,3-b]pyridin-4-yl)-7-[(5-THF-3-yl-2-pyridyl)amino] isoindolin-1-one]"
22,100 to 1000 nM,"CN(C)C(C)(C)c1nc(Nc2ccc(-c3cnc4cc(F)ccn34)c3c2C(=O)NC3)ccc1[C@@H]1CCOC1 [I-833, (S)-7-((6-(2-(dimethylami-no)propan-2-yl)-5-(THF-3-yl)pyridin-2-yl)amino)-4-(7-fluoroimidazo [1,2-a]pyridin-3-yl)isoindolin-1-one]"

row,Compound,IC50
1,"4-(7- fluoroimidazo [1,2-a]pyridin- 3-yl)-7-[[5-(4- morpholino-1- piperidyl)-2- pyridyl]amino] isoindolin-1- one [I-488]",< 100 nM
2,"CN1CCN(c2ccc(Nc3ccc(-c4c(F)cnc5c4ccn5C)c4c3C(=O)NC4)nc2)CC1 [I-67, 4-(5-fluoro-1-methyl-pyrrolo[2,3-b]pyridin-4-yl)-7-[[5-(4-methylpiperazin-1-yl)-2-pyridyl]amino] isoindolin-1-one]",< 100 nM
